Reference: PMC3929664, “A Panel of Diverse Assays to Interrogate the Interaction between Glucokinase and Glucokinase Regulatory Protein, Two Vital Proteins in Human Disease” (PLoS ONE, 2014)
Each block holds one molecule with its values, some of them ahead of it.

Assays:
[1] = test system: GCK (recombinant GST-GCK); settings: cited from earlier work
[2] = molecular target: T1, recombinant human GST-GCK (Homo sapiens, UniProt P35557); format: biochemical; settings: 4 nM GCK, 37.5 mM glucose, fit accounting for substrate inhibition, mean ± SD; read-out: ATP Km
T1 construct: GST (glutathione-S-transferase); made in house
T1 sequence (P35557 1-465): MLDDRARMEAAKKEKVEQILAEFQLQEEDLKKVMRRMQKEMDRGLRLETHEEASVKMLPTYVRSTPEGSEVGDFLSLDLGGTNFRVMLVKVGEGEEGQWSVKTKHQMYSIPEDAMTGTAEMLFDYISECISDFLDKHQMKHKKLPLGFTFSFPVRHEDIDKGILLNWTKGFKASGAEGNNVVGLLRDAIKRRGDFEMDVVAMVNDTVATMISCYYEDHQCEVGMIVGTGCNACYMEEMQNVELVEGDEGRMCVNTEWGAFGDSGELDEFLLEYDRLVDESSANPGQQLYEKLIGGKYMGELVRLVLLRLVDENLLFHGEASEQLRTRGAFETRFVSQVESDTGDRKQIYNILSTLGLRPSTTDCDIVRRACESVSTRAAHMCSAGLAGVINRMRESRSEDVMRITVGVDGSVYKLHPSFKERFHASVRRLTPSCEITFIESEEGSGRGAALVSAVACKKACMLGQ
Protocol: The ATP Km for GCK was determined by fluorescent monitoring of NADH oxidation using a dual-coupling system whereby generation of ADP by GCK was coupled to oxidation of NADH via PK and LDH (Figure S2A) [37]. The final reaction contained 4 nM GCK, glucose in five-fold excess of the calculated glucose S0.5 (37.5 mM), and ATP concentrations ranging from 0 to 2 mM. The reaction was initiated by addition of ATP and read immediately, then every 10 seconds for 5 minutes. Each ATP concentration was tested in quadruplicate. The initial slopes (v0) for each concentration were determined by linear regression (GraphPad Prism, GraphPad Software, San Diego, CA, USA), and then v0 was plotted against ATP concentration (Figure S2B).
(A) Reaction scheme of PK/LDH dual-coupled assay. The reaction included 4 nM GCK. (B) Reaction progress over the first 60 seconds was monitored by the loss of NADH fluorescence at 450 nm using a ViewLux Microplate Imager and results analyzed by linear regression. Resultant slopes from regression were plotted and the curve fit using nonlinear regression accounting for substrate inhibition in GraphPad Prism to give a best-fit Km value.

[3] = test system: cryopreserved pooled male Sprague-Dawley rat hepatocytes; assay: GCK translocation in cryopreserved rat hepatocytes (high-content imaging); format: cell-based; settings: 2 hours
Protocol: Plateable cryopreserved pooled male Sprague-Dawley rat hepatocytes (lot number NPD) were thawed and plated (40,000 cells/well) in Biocoat black/clear collagen-coated 96-well plates (BD Biosciences, San Jose, CA, USA) in InVitroGRO™ CP Rat medium supplemented with Torpedo™ Antibiotic Mix (BioreclamationIVT). After hepatocyte attachment, media was changed to InVitroGRO™ HI Rat medium with Torpedo™ Antibiotic Mix.
Hepatocytes were fixed in 4% PFA for 15 minutes. PFA was then removed and cells were washed twice in Dulbecco’s phosphate-buffered saline (DPBS) containing 0.2% Triton-X and then permeabilized for 10 minutes with DPBS/0.2% Triton-X. Cells were then treated for 30 minutes with Odyssey protein blocking buffer (Li-cor Biosciences, Lincoln, NE, USA) before addition of a mouse monoclonal IgG2a GKRP antibody [GCKR (A-8); Santa Cruz Biotechnology, Inc., Santa Cruz, CA, USA]. The antibody (200 µg/ml) was diluted (1∶50) in protein blocking buffer and incubated with cells for 120 minutes. Cells were then washed (4×5 minutes) in PBS/0.1% Tween-20 before addition of protein blocking buffer containing Alexa Fluor® 647 Goat Anti-Mouse IgG (H+L) (Invitrogen; 1∶500 dilution) and rabbit polyclonal GCK antibody [1∶30 dilution; GCK (H-88) 200 µg/ml; Santa Cruz Biotechnology]. After 60 minutes, cells were washed with PBS/0.1% Tween-20 (4×5 minutes). […]

[4] = test system: cryopreserved human hepatocytes; assay: GCK translocation in cryopreserved human hepatocytes (GKRP-positive cells); format: cell-based
Protocol: Plateable cryopreserved human hepatocytes (female, lot number TRZ; male, lot number FOS) were plated at 50,000 cells/well in Biocoat black/clear collagen-coated 96-well plates in InVitroGRO™ CP medium supplemented with Torpedo™ Antibiotic Mix. After hepatocyte attachment, media was changed to InVitroGRO™ HI medium with Torpedo™ Antibiotic Mix.
Hepatocytes were fixed in 4% PFA for 15 minutes. PFA was then removed and cells were washed twice in Dulbecco’s phosphate-buffered saline (DPBS) containing 0.2% Triton-X and then permeabilized for 10 minutes with DPBS/0.2% Triton-X. Cells were then treated for 30 minutes with Odyssey protein blocking buffer (Li-cor Biosciences, Lincoln, NE, USA) before addition of a mouse monoclonal IgG2a GKRP antibody [GCKR (A-8); Santa Cruz Biotechnology, Inc., Santa Cruz, CA, USA]. The antibody (200 µg/ml) was diluted (1∶50) in protein blocking buffer and incubated with cells for 120 minutes. Cells were then washed (4×5 minutes) in PBS/0.1% Tween-20 before addition of protein blocking buffer containing Alexa Fluor® 647 Goat Anti-Mouse IgG (H+L) (Invitrogen; 1∶500 dilution) and rabbit polyclonal GCK antibody [1∶30 dilution; GCK (H-88) 200 µg/ml; Santa Cruz Biotechnology]. After 60 minutes, cells were washed with PBS/0.1% Tween-20 (4×5 minutes). Following a 60-minute incubation with blocking buffer and goat anti-rabbit IgG-HRP (1∶500 dilution; sc-2004; Santa Cruz Biotechnology), cells were washed with PBS/0.1% Tween-20 (4×5 minutes). Fluorescent detection of the HRP-conjugated secondary antibody was enabled using a 10-minute incubation with fluorescein-conjugated tyramide from the Tyramide Signal Amplification kit (PerkinElmer). The tyramide solution was prepared in DMSO (Sigma-Aldrich) according to the manufacturer’s instructions. Cells were then washed (3×5 minutes) with PBS/0.1% Tween-20 before a final five-minute wash with PBS/0.1% Tween-20 containing 0.02 mg/ml Hoechst 33342 Trihydrochloride Trihydrate (Hoechst; Invitrogen) for visualization of nuclei. After Hoechst staining, all cells were then stored in 100 µl DPBS at 4°C. […]

[5] = molecular target: T1, recombinant human GST-GCK; assay: GCK glucose S0.5 and Hill coefficient by luminescent ADP-Glo assay; format: biochemical; settings: 4 nM GCK, 4 mM ATP, 45 minutes
Protocol: The glucose S0.5 and Hill coefficient for GCK were calculated using a luminescent assay measuring the production of ADP by GCK (ADP-Glo™ Kinase Assay, Promega Corporation, Madison, WI, USA; see below). Luminescence was measured at 18 glucose concentrations from 0.1 to 100 mM (two separate experiments; each n = 8 for each concentration).
The assay included 4 nM GCK and 4 mM ATP and was terminated after 45 minutes. Each data point is mean ± SEM (n = 8). Curves were fit using nonlinear regression with the allosteric sigmoidal option in GraphPad Prism to determine the S0.5 and Hill coefficient.

[6] = molecular target: T2, GCK-GKRP interaction (recombinant human GST-GCK and FLAG-GKRP) (Homo sapiens, UniProt P35557+Q14397); assay: HTRF assay of the GCK-GKRP protein-protein interaction; format: binding; settings: 5 nM GCK, 5 nM GKRP, 2 µM S6P, mean ± SD; read-out: IC50 (inhibition of GCK-GKRP interaction, HTRF signal)
T2 construct: made in house
T2 sequence (P35557 1-465): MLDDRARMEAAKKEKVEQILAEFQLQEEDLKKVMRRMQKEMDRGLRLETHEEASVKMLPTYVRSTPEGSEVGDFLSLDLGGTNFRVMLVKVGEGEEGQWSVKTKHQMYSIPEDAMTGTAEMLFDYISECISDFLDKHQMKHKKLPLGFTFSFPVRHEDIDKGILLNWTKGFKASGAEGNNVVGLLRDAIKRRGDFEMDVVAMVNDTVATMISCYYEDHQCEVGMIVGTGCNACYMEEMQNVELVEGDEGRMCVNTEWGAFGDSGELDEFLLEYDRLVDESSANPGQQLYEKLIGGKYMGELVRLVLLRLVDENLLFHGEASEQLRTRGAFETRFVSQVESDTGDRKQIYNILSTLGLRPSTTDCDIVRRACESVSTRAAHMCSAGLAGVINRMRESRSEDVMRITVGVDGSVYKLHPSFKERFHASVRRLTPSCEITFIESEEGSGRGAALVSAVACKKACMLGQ
T2 sequence (Q14397 1-625): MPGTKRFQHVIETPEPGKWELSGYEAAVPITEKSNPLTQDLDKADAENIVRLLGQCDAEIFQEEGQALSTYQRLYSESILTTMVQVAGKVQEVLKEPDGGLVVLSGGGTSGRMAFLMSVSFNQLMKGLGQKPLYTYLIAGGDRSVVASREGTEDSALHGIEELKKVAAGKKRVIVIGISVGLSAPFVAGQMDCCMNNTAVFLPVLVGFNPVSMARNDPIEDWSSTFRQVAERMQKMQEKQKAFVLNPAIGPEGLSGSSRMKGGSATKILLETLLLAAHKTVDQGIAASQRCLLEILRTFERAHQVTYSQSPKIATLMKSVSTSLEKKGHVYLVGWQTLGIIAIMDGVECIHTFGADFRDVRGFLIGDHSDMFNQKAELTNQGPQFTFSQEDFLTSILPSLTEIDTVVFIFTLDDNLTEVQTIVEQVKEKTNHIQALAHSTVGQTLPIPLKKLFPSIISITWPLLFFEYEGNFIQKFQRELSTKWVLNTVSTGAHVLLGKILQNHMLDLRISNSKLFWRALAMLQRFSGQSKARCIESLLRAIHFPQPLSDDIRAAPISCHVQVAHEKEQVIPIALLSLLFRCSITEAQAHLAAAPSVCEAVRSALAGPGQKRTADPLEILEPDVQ
Protocol: Homogeneous time-resolved fluorescence (HTRF) technology (Cisbio Bioassays, Bedford, MA, USA) was utilized for antibody-based FRET measurement of the GCK-GKRP protein-protein interaction. Recombinant human GST-GCK and FLAG-GKRP were mixed in an HTRF assay buffer containing 2 mM MgCl2, 25 mM KCl, 25 mM HEPES, 1 mM DTT, 0.1% Tween-20, and 0.025% BSA (all buffer components Sigma-Aldrich). The pH was adjusted to 7.1 by drop-wise addition of 10 N NaOH. […] For assays in 1536-well plate format, the two reaction mixes were dispensed using an Aurora Discovery BioRAPTR Flying Reagent Dispenser (BioRAPTR; Beckman Coulter, Inc., Brea, CA, USA) (3 µl/well for protein-containing buffer; 1 µl/well for detection antibodies) into white 1536-well solid-bottom medium binding plates (Greiner Bio-One, Monroe, NC, USA). […] For the LOPAC^1280 library screen, column 1 was all components with DMSO (maximum signal) and column 3 was no GKRP with DMSO (minimum signal). These two control columns were used for data normalization. The final HTS protocol is in Table S1, and the data have been deposited in PubChem (AID 743207).
S6P, F1P, and glucose were dissolved in water; GKAs were dissolved in DMSO.
The assay was validated using a range (0–150 nM) of GCK and GKRP concentrations at manufacturer-recommended detection antibody concentrations ( Figure 2A ). Fluorescence was measured immediately upon mixing, and every 30 minutes thereafter for a total of 240 minutes. The plate was covered and incubated at room temperature throughout the course of the experiment.
The assay was miniaturized to 1536-well plate format and, concurrently, specificity of detection was validated by using known modulators of the GCK-GKRP interaction.
The EC80 value represents a compromise between the desire for large enough signal enhancement and the need to maintain a binding level that is not too saturated so that it can be outcompeted by compounds of interest. Additionally, this approach enables detection of specific competitors of S6P, which would likely be acting on GKRP as desired, and not on GCK. […] Both glucose and GKAs interfere with the binding of GKRP to GCK and decrease GKRP inhibition, [44], [45], while F1P binds to GKRP and is competitive with respect to S6P [46].

[7] = molecular target: T3, Recombinant glutathione-S-transferase (GST)-tagged human glucokinase (human, UniProt P35557 1-465); assay: AlphaScreen or HTRF; 1536-well plate, 4 µl final volume; 5 nM GST-GCK and 5 nM FLAG-GKRP in solution, without S6P or with S6P (2 µM for the inhibitor tests); anti-GST K and anti-FLAG XL 665 antibodies; HTRF assay buffer pH 7.1; room temperature, 60 minutes; signal ratio 665 nm/615 nm; settings: both partners purified
T3 construct: glucokinase (GCK), human; also called GCK; GST-GCK; source: prepared as described previously [24], [35]
T3 sequence (looked up): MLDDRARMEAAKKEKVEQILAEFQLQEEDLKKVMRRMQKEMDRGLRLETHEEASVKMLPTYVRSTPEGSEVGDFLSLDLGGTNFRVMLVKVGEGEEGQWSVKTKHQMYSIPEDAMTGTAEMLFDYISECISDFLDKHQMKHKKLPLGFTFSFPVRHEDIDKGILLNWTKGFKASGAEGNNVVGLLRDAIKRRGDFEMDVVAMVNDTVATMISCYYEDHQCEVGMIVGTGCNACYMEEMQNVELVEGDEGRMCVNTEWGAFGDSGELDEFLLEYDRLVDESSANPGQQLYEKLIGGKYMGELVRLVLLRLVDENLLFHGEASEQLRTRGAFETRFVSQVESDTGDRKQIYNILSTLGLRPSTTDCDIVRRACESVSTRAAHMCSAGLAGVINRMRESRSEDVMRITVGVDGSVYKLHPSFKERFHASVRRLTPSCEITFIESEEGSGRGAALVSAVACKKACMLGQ

[8] = molecular target: T3, Recombinant glutathione-S-transferase …; assay: AlphaScreen or HTRF; 384-well plate; GST-GCK and FLAG-GKRP each titrated 0-150 nM in solution; anti-GST K (donor) and anti-FLAG XL 665 (acceptor) antibodies; 2 mM MgCl2, 25 mM KCl, 25 mM HEPES, 1 mM DTT, 0.1% Tween-20, 0.025% BSA, pH 7.1; room temperature, read at t = 60 minutes; signal ratio 665 nm/615 nm; settings: both partners purified

Molecule: Nc1ncnc2c1ncn2[C@@H]1O[C@H](COP(=O)(O)OP(=O)(O)OP(=O)(O)O)[C@@H](O)[C@H]1O [ATP]
- Km ([1]; recombinant GST-GCK, read-out: ATP Km, previously described): 400 µM
- Km [2]: 400 ± 110 µM

- Hill coefficient ([5]; mean ± SD): 1.53±0.1
- glucose S0.5 ([5]; mean ± SD across two experiments): 7.5 ± 0.8 mM
- IC50 [6]: 16 ± 1.4 mM
Molecule: OC[C@H]1OC(O)[C@H](O)[C@@H](O)[C@@H]1O (some centres unmarked) [glucose]
- cells with translocated GCK ([3]; 2.5 mM glucose): 25%
- cells with translocated GCK ([3]; 16.7 mM glucose): 84%
- Hill coefficient, previously reported [1]: 1.6–1.7
- glucose S0.5, previously reported [1]: 7.5 to 10 mM
- increase in number of translocation-positive cells ([4]; 25 mM glucose compared to 2.5 mM glucose, both lots (TRZ, FOS)): approximately 10%

Molecule: OC[C@@H](O)[C@@H](O)[C@H](O)[C@@H](O)CO [sorbitol]
- GCK translocation response ([4]; lot FOS): no translocation was observed
- GCK translocation response ([4]; lot TRZ, 2.5 mM glucose): approximately four-fold

- HTRF signal ratio (665 nm/615 nm) at 5 nM of both proteins, no S6P [7]: 1.87
- HTRF signal ratio (665 nm/615 nm) at 5.56 nM of both proteins [8]: 1.77
B1: Recombinant FLAG-tagged human glucokinase regulatory protein (natural protein, UniProt Q14397 1-625, looked up)
chain: MPGTKRFQHVIETPEPGKWELSGYEAAVPITEKSNPLTQDLDKADAENIVRLLGQCDAEIFQEEGQALSTYQRLYSESILTTMVQVAGKVQEVLKEPDGGLVVLSGGGTSGRMAFLMSVSFNQLMKGLGQKPLYTYLIAGGDRSVVASREGTEDSALHGIEELKKVAAGKKRVIVIGISVGLSAPFVAGQMDCCMNNTAVFLPVLVGFNPVSMARNDPIEDWSSTFRQVAERMQKMQEKQKAFVLNPAIGPEGLSGSSRMKGGSATKILLETLLLAAHKTVDQGIAASQRCLLEILRTFERAHQVTYSQSPKIATLMKSVSTSLEKKGHVYLVGWQTLGIIAIMDGVECIHTFGADFRDVRGFLIGDHSDMFNQKAELTNQGPQFTFSQEDFLTSILPSLTEIDTVVFIFTLDDNLTEVQTIVEQVKEKTNHIQALAHSTVGQTLPIPLKKLFPSIISITWPLLFFEYEGNFIQKFQRELSTKWVLNTVSTGAHVLLGKILQNHMLDLRISNSKLFWRALAMLQRFSGQSKARCIESLLRAIHFPQPLSDDIRAAPISCHVQVAHEKEQVIPIALLSLLFRCSITEAQAHLAAAPSVCEAVRSALAGPGQKRTADPLEILEPDVQ
notes: glucokinase regulatory protein (GKRP), encoded by GCKR, human; also called GKRP; FLAG-GKRP; source: prepared as described previously [24], [35]
